Measurements taken from patent publication US4434788A, “Enhancer of anti-tumor effect” (Yamasa Shoyu Kabushiki Kaisha, priority 1980, dated 1984).

Experiments:
[1] = tested on: EMT-6 tumors; experiment: Radiosensitizing effect on EMT-6 tumor in mouse, cure percentage and TCD50; type: in vivo, BALB/c-strain female mice; conditions: 100 mg/kg i.p. after irradiation; for Cure number/Number treated / Cure percentage: >90 days
Protocol: EMT-6 tumor cells (2×10^5) were inoculated intradermally into the right thighs of BALB/c-strain female mice (8 weeks old). When the tumor sizes reached 5.5 to 8.0 mm after inoculation of the tumor cells, irradiation was locally carried out with 1,000 rad to 2,700 rad of 32 MeV electron beam under no anesthesia, and thereafter 3'-dAdo and 3'-dGuo, each dissolved in physiological saline solution, were administered intraperitoneally in a dose of 100 mg/kg. After the treatments, observation was continued for longer than 90 days, and the cure percentages were determined for comparison with the control group. [formula]
(2) TCD50 =50% Tumor control dose

[2] = LD50 (i.p.) of 3'-dAdo; conditions: in vivo, ip
[3] = tested on: potentially lethal damage repair; experiment: PLDR-inhibiting / radiosensitizing activity (general statements)
[4] = tested on: adenosinedeaminase; conditions: in bodies; cited from earlier work

SMILES: Nc1ncnc2c1ncn2[C@@H]1O[C@H](CO)C[C@H]1O [3'-dAdo, 3'-deoxyadenosine, reference compound]
- TCD50 (50% Tumor control dose) ([1]; radiation doses given in rad, control 2400): 1600 rad
- TCD50 ratio ([1]; relative to control 1.0): 0.67
- Cure number/Number treated ([1]; 1,000 rad, control 1/23): 3/18
- Cure percentage ([1]; 1,000 rad, control 4%): 17%
- Cure number/Number treated ([1]; 1,500 rad, control 8/44): 14/29
- Cure percentage ([1]; 1,500 rad, control 18%): 48%
- Cure number/Number treated ([1]; 2,100 rad, control 9/24): 11/14
- Cure percentage ([1]; 2,100 rad, control 38%): 79%
- Cure number/Number treated ([1]; 2,700 rad, control 13/28): 10/15
- Cure percentage ([1]; 2,700 rad, control 47%): 67%
- LD50 [2]: 280 mg/kg
- Radiosensitizing activity [3]: excellent radiosensitizing activities
- PLDR-inhibiting ability of 3'-dAdo in combination with 2'-deoxycoformycin ([3]; combination of 3'-dAdo with 2'-deoxycoformycin): can be strengthened and prolonged
- Inactivation by adenosinedeaminase [4]: readily inactivated by adenosinedeaminase in bodies
